± gives the expanded uncertainty stated by the source.
Assays:
[1] = refractive index (Na D-line) (dimensionless); xn = mol fraction of the nth substance listed; conditions: 100.8 kPa, Liquid, Standard Abbe refractometry
[2] = xn = mol fraction of the nth substance listed; conditions: 100.8 kPa, Liquid

CC(C)CC(C)(C)C [2,2,4-trimethylpentane] + CCO
Conditions | mass density, 298.15 K [kg/m3] | mass density, 308.15 K [kg/m3] | mass density, 318.15 K [kg/m3] | refractive index, 298.15 K | refractive index, 308.15 K | refractive index, 318.15 K | viscosity, 298.15 K [mPa·s] | viscosity, 308.15 K [mPa·s] | viscosity, 318.15 K [mPa·s]
[1], x2 = 0 | – | – | – | 1.38898 ± 0.00032 | 1.38398 ± 0.00032 | 1.37898 ± 0.00032 | – | – | –
[1], x2 = 0.05 | – | – | – | 1.38825 ± 0.00032 | 1.38325 ± 0.00032 | 1.37815 ± 0.00032 | – | – | –
[1], x2 = 0.1 | – | – | – | 1.38749 ± 0.00032 | 1.38247 ± 0.00032 | 1.37738 ± 0.00032 | – | – | –
[1], x2 = 0.15 | – | – | – | 1.38668 ± 0.00032 | 1.38169 ± 0.00032 | 1.37662 ± 0.00032 | – | – | –
[1], x2 = 0.2 | – | – | – | 1.38586 ± 0.00032 | 1.38087 ± 0.00032 | 1.37584 ± 0.00032 | – | – | –
[1], x2 = 0.25 | – | – | – | 1.38499 ± 0.00032 | 1.38002 ± 0.00032 | 1.37503 ± 0.00032 | – | – | –
[1], x2 = 0.3 | – | – | – | 1.38408 ± 0.00032 | 1.37913 ± 0.00032 | 1.37417 ± 0.00032 | – | – | –
[1], x2 = 0.35 | – | – | – | 1.38311 ± 0.00032 | 1.37819 ± 0.00032 | 1.37326 ± 0.00032 | – | – | –
[1], x2 = 0.4 | – | – | – | 1.38208 ± 0.00032 | 1.37719 ± 0.00032 | 1.37229 ± 0.00032 | – | – | –
[1], x2 = 0.45 | – | – | – | 1.38098 ± 0.00032 | 1.37612 ± 0.00032 | 1.37125 ± 0.00032 | – | – | –
[1], x2 = 0.5 | – | – | – | 1.3798 ± 0.00032 | 1.37497 ± 0.00032 | 1.37013 ± 0.00032 | – | – | –
[1], x2 = 0.55 | – | – | – | 1.37853 ± 0.00032 | 1.37373 ± 0.00032 | 1.36892 ± 0.00032 | – | – | –
[1], x2 = 0.6 | – | – | – | 1.37716 ± 0.00031 | 1.37239 ± 0.00031 | 1.36762 ± 0.00031 | – | – | –
[1], x2 = 0.65 | – | – | – | 1.37567 ± 0.00031 | 1.37093 ± 0.00031 | 1.36621 ± 0.00031 | – | – | –
[1], x2 = 0.7 | – | – | – | 1.37403 ± 0.00031 | 1.36933 ± 0.00031 | 1.36466 ± 0.00031 | – | – | –
[1], x2 = 0.75 | – | – | – | 1.37223 ± 0.00031 | 1.36757 ± 0.00031 | 1.36295 ± 0.00031 | – | – | –
[1], x2 = 0.8 | – | – | – | 1.37023 ± 0.00031 | 1.36562 ± 0.00031 | 1.36106 ± 0.00031 | – | – | –
[1], x2 = 0.85 | – | – | – | 1.36799 ± 0.00031 | 1.36345 ± 0.00031 | 1.35896 ± 0.00031 | – | – | –
[1], x2 = 0.9 | – | – | – | 1.36547 ± 0.00031 | 1.36102 ± 0.00031 | 1.3566 ± 0.00031 | – | – | –
[1], x2 = 0.95 | – | – | – | 1.36261 ± 0.00031 | 1.35826 ± 0.00031 | 1.35396 ± 0.00031 | – | – | –
[2], x2 = 0 | 687.89 ± 0.32 | 679.55 ± 0.33 | 671.1 ± 0.34 | – | – | – | 0.474 ± 0.014 | 0.425 ± 0.014 | 0.38 ± 0.013
[2], x2 = 0.05 | 688.94 ± 0.32 | 680.44 ± 0.33 | 671.89 ± 0.33 | – | – | – | 0.472 ± 0.014 | 0.421 ± 0.013 | 0.376 ± 0.013
[2], x2 = 0.1 | 690.43 ± 0.32 | 681.85 ± 0.33 | 673.2 ± 0.33 | – | – | – | 0.47 ± 0.014 | 0.419 ± 0.013 | 0.377 ± 0.013
[2], x2 = 0.15 | 692.16 ± 0.32 | 683.55 ± 0.33 | 674.81 ± 0.33 | – | – | – | 0.476 ± 0.014 | 0.423 ± 0.014 | 0.378 ± 0.013
[2], x2 = 0.2 | 694.08 ± 0.32 | 685.46 ± 0.32 | 676.67 ± 0.33 | – | – | – | 0.485 ± 0.014 | 0.428 ± 0.014 | 0.381 ± 0.013
[2], x2 = 0.25 | 696.22 ± 0.32 | 687.59 ± 0.32 | 678.74 ± 0.33 | – | – | – | 0.494 ± 0.014 | 0.435 ± 0.014 | 0.387 ± 0.013
[2], x2 = 0.3 | 698.58 ± 0.31 | 689.91 ± 0.32 | 681.05 ± 0.33 | – | – | – | 0.506 ± 0.014 | 0.443 ± 0.014 | 0.392 ± 0.013
[2], x2 = 0.35 | 701.19 ± 0.31 | 692.48 ± 0.32 | 683.6 ± 0.32 | – | – | – | 0.52 ± 0.014 | 0.453 ± 0.014 | 0.401 ± 0.013
[2], x2 = 0.4 | 704.04 ± 0.31 | 695.33 ± 0.31 | 686.41 ± 0.32 | – | – | – | 0.538 ± 0.014 | 0.469 ± 0.014 | 0.413 ± 0.013
[2], x2 = 0.45 | 707.19 ± 0.31 | 698.47 ± 0.31 | 689.53 ± 0.32 | – | – | – | 0.558 ± 0.014 | 0.487 ± 0.014 | 0.426 ± 0.014
[2], x2 = 0.5 | 710.69 ± 0.3 | 701.95 ± 0.31 | 693 ± 0.32 | – | – | – | 0.583 ± 0.015 | 0.507 ± 0.014 | 0.443 ± 0.014
[2], x2 = 0.55 | 714.59 ± 0.3 | 705.81 ± 0.31 | 696.87 ± 0.31 | – | – | – | 0.611 ± 0.015 | 0.53 ± 0.014 | 0.461 ± 0.014
[2], x2 = 0.6 | 718.95 ± 0.3 | 710.14 ± 0.3 | 701.18 ± 0.31 | – | – | – | 0.642 ± 0.015 | 0.555 ± 0.014 | 0.483 ± 0.014
[2], x2 = 0.65 | 723.82 ± 0.29 | 714.99 ± 0.3 | 706 ± 0.3 | – | – | – | 0.675 ± 0.015 | 0.583 ± 0.015 | 0.505 ± 0.014
[2], x2 = 0.7 | 729.34 ± 0.29 | 720.46 ± 0.29 | 711.43 ± 0.3 | – | – | – | 0.71 ± 0.016 | 0.614 ± 0.015 | 0.528 ± 0.014
[2], x2 = 0.75 | 735.56 ± 0.28 | 726.64 ± 0.29 | 717.6 ± 0.3 | – | – | – | 0.75 ± 0.016 | 0.647 ± 0.015 | 0.557 ± 0.014
[2], x2 = 0.8 | 742.67 ± 0.28 | 733.71 ± 0.28 | 724.66 ± 0.29 | – | – | – | 0.797 ± 0.017 | 0.685 ± 0.016 | 0.589 ± 0.015
[2], x2 = 0.85 | 750.87 ± 0.27 | 741.88 ± 0.28 | 732.81 ± 0.29 | – | – | – | 0.853 ± 0.017 | 0.731 ± 0.016 | 0.626 ± 0.015
[2], x2 = 0.9 | 760.47 ± 0.27 | 751.45 ± 0.27 | 742.33 ± 0.28 | – | – | – | 0.916 ± 0.018 | 0.784 ± 0.017 | 0.668 ± 0.015
[2], x2 = 0.95 | 771.78 ± 0.26 | 762.83 ± 0.27 | 753.76 ± 0.27 | – | – | – | 0.989 ± 0.019 | 0.843 ± 0.017 | 0.712 ± 0.016

From the NIST ThermoML archive (doi:10.1021/je0501639)
